{"source": "patent US20110144213A1", "about": "“ANHYDROUS DEPIGMENTING COMPOSITIONS COMPRISING A SOLUBILIZED PHENOLIC COMPOUND” (priority 2008, published 2011)", "key": {"[1]": {"assay": "Max. solubility of the active agents in solvent oils, lipophilic surfactants and alcoholic or glycolic solvents (HPLC)", "assay_type": "physicochemical", "conditions": "rucinol in all the solvents tested", "excerpt": "a) Solubilities and Stabilities of Hydroquinone in Solvent Oils and Lipophilic Surfactants Hydroquinone Solubilities\nThe above table makes it possible to identify which solvents are the most solubilizing for the active agent, for optimum selection of the ingredients of the composition. However, the choice of solvent will also be made on the basis of the results of the stability of hydroquinone in these solvents. […]\nb) Solubilities and Stabilities of Rucinol in Solvent Oils and Lipophilic Surfactants […]\nHowever, the optimum choice of solvent will also be made on the basis of the results of the stability of rucinol in these solvents."}, "[2]": {"assay": "Stability of the active agents in solvent oils and lipophilic surfactants (HPLC assay against reference substance, colour)", "assay_type": "physicochemical", "conditions": "for Colour: 40° C.", "excerpt": "Stability of Hydroquinone in Solvent Oils and Lipophilic Surfactants\nAssay technique by HPLC against reference substance.\nThe initial time (T0) is considered as 100%\nThe above table makes it possible to evaluate the stability of hydroquinone in the various solubilizing agents identified previously.\nStability of Rucinol in Solvent Oils and Lipophlic Surfactants\nThe initial time (T0) is considered as 100%.\nThe table below makes it possible to evaluate the stability of rucinol in the solubilizing agents identified previously."}, "[3]": {"conditions": "cited from earlier work"}}, "note": "Like-named read-outs stand apart in the source and are kept apart here.", "data": [{"compound": "CCCCc1ccc(O)cc1O", "note": "[Rucinol, 4-butylresorcinol]", "values": [{"measurement": "solubility (in words)", "setting": "[1]", "value": "very good solubility"}]}, {"compound": "Oc1ccc(O)cc1", "note": "[Hydroquinone, hydroquinone]", "values": [{"measurement": "Colour", "setting": "[2]; hydroquinone in Ethanol/water (20/80), 1 MONTH", "value": "Dark"}, {"measurement": "Colour", "setting": "[2]; hydroquinone in Glycerol, 1 MONTH", "value": "Dark"}, {"measurement": "Colour", "setting": "[2]; hydroquinone in Propylene glycol, 3 MONTHS", "value": "Dark"}, {"measurement": "stability of hydroquinone (in words)", "setting": "[2]; in Cremophor EL, browning that becomes pronounced over time and with temperature", "value": "macroscopic instability"}, {"measurement": "stability of hydroquinone (in words)", "setting": "[2]; in Crodamol DA, Arlamol E and Labrasol, macroscopic observation of the colour", "value": "good chemical and physical stability"}, {"measurement": "stability of hydroquinone (in words)", "setting": "[2]; in solvents of the prior art such as glycols, RT and 40° C., absence of antioxidants", "value": "a colouration is observed"}, {"measurement": "incidence of the irritation", "setting": "[3]; 10% hydroquinone concentrations", "value": "relatively high"}, {"measurement": "incidence of the irritation", "setting": "[3]; concentration of 2%", "value": "virtually nonexistent"}, {"measurement": "incidence of the irritation", "setting": "[3]; preparations with a 5% dose", "value": "reduces greatly"}]}]}
